Calls of active or inactive are those of the source. The calls are words filed in the database; no cut-off is given here.
Legend:
[1] = Downregulation of AXIN1 mRNA expression in human MIAPaCa2 cells at 40 nM after 6 hrs by RNA sequencing analysis relative to control; assay type: functional, MIA PaCa-2
[2] = AUC in mouse xenografted with human MIAPaCa2 cells at 0.96 mg/kg, iv administered as single dose; assay type: ADME, organism-based; parameters: dose 0.96 mg/kg; settings: in vivo
[3] = Cmax in mouse xenografted with human MIAPaCa2 cells at 0.96 mg/kg, iv administered as single dose; assay type: ADME, organism-based; parameters: route intravenous, dose 0.96 mg/kg; settings: in vivo
Mus musculus [4] = assay: Down regulation of MAPK11 expression in mouse xenografted with human MIAPaCa2 cells at 1 mg/kg, iv administered twice per week for 28 days and measured on day 28 by Western blot analysis; assay type: functional, organism-based; settings: time 28.0 day
MIA PaCa-2 [5] = assay: Antitumor activity against human MIAPaCa2 cells xenografted in mouse assessed as change in tumor volume at 15 mg/kg, iv administered twice per week for 28 days and measured at day 53 by Caliper method relative to control; assay type: functional; settings: time 28 day
[6] = Downregulation of hTERT mRNA expression in human MIAPaCa2 cells at 40 nM after 24 hrs by RNA sequencing analysis relative to control; assay type: functional, MIA PaCa-2
[7] = Clearance in mouse xenografted with human MIAPaCa2 cells at 0.96 mg/kg, iv administered as single dose; assay type: ADME, organism-based; settings: in vivo
[8] = Downregulation of MAPK11 mRNA expression in human MIAPaCa2 cells at 40 nM after 6 hrs by RNA sequencing analysis relative to control; assay type: functional, MIA PaCa-2
[9] = Antitumor activity in KPC-induced PDAC mouse model expressing active KRASG12D and mutant p53R172H assessed as median survival time at 1 mg/kg, iv administered once per week up to 3 weeks (reference value: 12 days); assay type: functional
MIA PaCa-2 [10] = assay: Antitumor activity against human MIAPaCa2 cells xenografted in mouse assessed as mean tumor volume at 1 mg/kg, iv administered twice per week for 28 days and measured at day 53 by Caliper method (reference value: 1.60 +/- 0.44 cm3); assay type: functional; settings: time 28 day
Quadruplex DNA [11] = assay: Binding affinity to G4 quadruplex DNA in human PANC1 cells assessed as increase in number of BG4 foci at 100 nM after 24 hrs by immunofluorescence based confocal microscopic analysis; assay type: cell-based; settings: PANC-1
PANC-1 [12] = assay: Potency index, ratio of 2,7-bis(3-morpholinopropyl)-4-((2-(pyrrolidin-1-yl)ethyl)amino)benzo[lmn][3,8]phenanthroline-1,3,6,8(2H,7H)-tetraone IC50 to test compound IC50 for human PANC1 cells measured after 96 hrs by SRB assay; assay type: functional
[13] = Toxicity in mouse xenografted with human MIAPaCa2 cells assessed as effect on cardiac clinical signs at 1 mg/kg, iv administered twice per week for 28 days; assay type: organism-based; settings: in vivo, 672 h, time 28 day
MIA PaCa-2 [14] = assay: Downregulation of hippo signaling pathway related gene expression in human MIAPaCa2 cells at 40 nM after 6 hrs by RNA sequencing analysis; assay type: functional, cell-based
Quadruplex DNA [15] = assay: Binding affinity to G4 quadruplex DNA in human PANC1 cells assessed as BG4 foci formation at 400 to 800 nM after 24 hrs by immunofluorescence based confocal microscopic analysis; assay type: cell-based; settings: PANC-1, dose nM 400-800, time 24.0 hrs
[16] = Downregulation of Bcl2 mRNA expression in human MIAPaCa2 cells at 40 nM after 6 hrs by RNA sequencing analysis relative to control; assay type: functional, MIA PaCa-2
MIA PaCa-2 [17] = assay: Antitumor activity against human MIAPaCa2 cells xenografted in mouse assessed as mean tumor volume at 1 mg/kg, iv administered once per week for 28 days and measured at day 28 by Caliper method (reference value: 0.45 +/- 0.18 cm3); assay type: functional; settings: time 28 day
MIA PaCa-2 [18] = assay: Antitumor activity against human MIAPaCa2 cells xenografted in mouse assessed as mean tumor volume at 1 mg/kg, iv administered once per week for 28 days and measured at day 53 by Caliper method (reference value: 1.60 +/- 0.44 cm3); assay type: functional; settings: time 28 day
MIA PaCa-2 [19] = assay: Downregulation of NF-kappaB signalling pathway related gene expression in human MIAPaCa2 cells at 40 nM after 6 hrs by RNA sequencing analysis; assay type: functional, cell-based
MIA PaCa-2 [20] = assay: Downregulation of cell cycle associated gene expression in human MIAPaCa2 cells at 40 nM after 24 hrs by RNA sequencing analysis; assay type: functional, cell-based
MIA PaCa-2 [21] = assay: Downregulation of DNA replication associated gene expression in human MIAPaCa2 cells at 40 nM after 24 hrs by RNA sequencing analysis; assay type: functional, cell-based
PANC-1 [22] = assay: Antiproliferative activity against human PANC1 cells assessed as growth inhibition after 96 hrs by SRB assay; assay type: functional
Mus musculus [23] = assay: Effect on hTERT expression in mouse xenografted with human MIAPaCa2 cells at 1 mg/kg, iv administered once per week for 28 days and measured on day 28 by Western blot analysis; assay type: functional, organism-based; settings: time 28.0 day
[24] = Downregulation of hTERT mRNA expression in human MIAPaCa2 cells at 40 nM after 6 hrs by RNA sequencing analysis relative to control; assay type: functional, MIA PaCa-2
MIA PaCa-2 [25] = assay: Potency index, ratio of 2,7-bis(3-morpholinopropyl)-4-((2-(pyrrolidin-1-yl)ethyl)amino)benzo[lmn][3,8]phenanthroline-1,3,6,8(2H,7H)-tetraone IC50 to test compound IC50 for human MIAPaCa2 cells measured after 96 hrs by SRB assay; assay type: functional
[26] = Toxicity in mouse xenografted with human MIAPaCa2 cells assessed as effect on cardiac clinical signs at 1 mg/kg, iv administered once per week for 28 days; assay type: organism-based; settings: in vivo, 672 h, time 28 day
[27] = Downregulation of AXIN1 mRNA expression in human MIAPaCa2 cells at 40 nM after 24 hrs by RNA sequencing analysis relative to control; assay type: functional, MIA PaCa-2
MIA PaCa-2 [28] = assay: Downregulation of Rap1 signaling pathway related gene expression in human MIAPaCa2 cells at 40 nM after 24 hrs by RNA sequencing analysis; assay type: functional, cell-based
MIA PaCa-2 [29] = assay: Downregulation of Wnt signaling pathway related gene expression in human MIAPaCa2 cells at 40 nM after 6 hrs by RNA sequencing analysis; assay type: functional, cell-based
[30] = Downregulation of WNT5B mRNA expression in human MIAPaCa2 cells at 40 nM after 24 hrs by RNA sequencing analysis relative to control; assay type: functional, MIA PaCa-2
MIA PaCa-2 [31] = assay: Downregulation of TNF signaling pathway related gene expression in human MIAPaCa2 cells at 40 nM after 6 hrs by RNA sequencing analysis; assay type: functional, cell-based
CAPAN-1 = assay: Antiproliferative activity against human Capan1 cells assessed as growth inhibition after 96 hrs by SRB assay; assay type: functional
[32] = Toxicity in mouse xenografted with human MIAPaCa2 cells assessed as drug tolerability at 1 mg/kg, iv administered twice per week for 28 days; assay type: organism-based; settings: in vivo, 672 h, time 28 day
[33] = Downregulation of GLI1 mRNA expression in human MIAPaCa2 cells at 40 nM after 6 hrs by RNA sequencing analysis relative to control; assay type: functional, MIA PaCa-2
[34] = Toxicity in mouse xenografted with human MIAPaCa2 cells assessed as drug tolerability at 1 mg/kg, iv administered once per week for 28 days; assay type: organism-based; settings: in vivo, 672 h, time 28 day
[35] = Downregulation of Bcl2 mRNA expression in human MIAPaCa2 cells at 40 nM after 24 hrs by RNA sequencing analysis relative to control; assay type: functional, MIA PaCa-2

Molecule O=C1c2cc(-c3ccc(CN4CCCC4)cc3)c3c4c(cc(NCCN5CCCC5)c(c24)C(=O)N1CCCN1CCOCC1)C(=O)N(CCCN1CCOCC1)C3=O [QN-302] has a log2FC [1] of 1.59, an AUC [2] of 5860 ng·h/mL and a Cmax [3] of 4180 ng/mL. For the same molecule, the inhibition (Mus musculus [4]) was “Active”, the Activity (MIA PaCa-2 [5]) was -78.1% and the log2FC [6] was 1.02. The clearance [7] was 2.2 mL/min/kg, the log2FC [8] was 0.71 and the MST [9] was 24 days. The Activity (MIA PaCa-2 [10]) was 0.15 cm3, the Activity (Quadruplex DNA [11]) was “Active” and the “Ratio IC50” value (PANC-1 [12]) was 10. For the same molecule, the Activity [13] was “Non-Toxic”, the inhibition (MIA PaCa-2 [14]) was “Active” and the Activity (Quadruplex DNA [15]) was “inactive”. For the same molecule, the log2FC [16] was 0.58, the Activity (MIA PaCa-2 [17]) was 0.08 cm3 and the Activity (MIA PaCa-2 [18]) was 0.17 cm3. The inhibition (MIA PaCa-2 [19]) was “Active”, the inhibition (MIA PaCa-2 [20]) was “Active” and the inhibition (MIA PaCa-2 [21]) was “Active”. For the same molecule, the GI50 (PANC-1 [22]) was 1.4 nM, the Activity (Mus musculus [23]) was “inactive” and the log2FC [24] was 2.29. The “Ratio IC50” value (MIA PaCa-2 [25]) was 10, the Activity [26] was “Non-Toxic” and the log2FC [27] was 0.39. For the same molecule, the inhibition (MIA PaCa-2 [28]) was “Active”, the inhibition (MIA PaCa-2 [29]) was “Active” and the log2FC [30] was 0.57. For the same molecule, the inhibition (MIA PaCa-2 [31]) was “Active”, the GI50 (CAPAN-1) was 5.9 nM and the Activity [32] was “Non-Toxic”. For the same molecule, the log2FC [33] was 0.66, the Activity [34] was “Non-Toxic” and the log2FC [35] was 1.75.

Source: ChEMBL document CHEMBL4725390, “Asymmetrically Substituted Quadruplex-Binding Naphthalene Diimide Showing Potent Activity in Pancreatic Cancer Models” (ACS Med Chem Lett, 2020)
